The record followed here is patent publication US7208496B2, “Substituted heterocyclic compounds” (CV Therapeutics, Inc., priority 2003, dated 2007).

The subject of this assay is Palmitoyl CoA oxidation in rat heart mitochondria. Description: Palmitoyl CoA oxidation assay (mitochondrial assay, Example 16). It is filed as biochemical. The settings on record: 16 microM 1-C14 palmitoyl CoA, 15 min at 30° C., read-out: IC value, Palmitoyl CoA oxidation. The procedure:
Rat heart mitochondria are isolated by the method of Nedergard and Cannon (Methods in Enzymol. 55, 3, 1979).
Palmitoyl CoA oxidation—The Palmityl CoA oxidation is carried out in a total volume of 100 micro liters containing the following agents: 110 mM KCl, 33 mM Tris buffer at pH 8, 2 mM KPi, 2 mM MgCl2, 0.1 mM EDTA, 14.7 microM defatted BSA, 0.5 mM malic acid, 13 mM carnitine, 1 mM ADP, 52 micrograms of mitochondrial protein, and 16 microM 1-C14 palmitoyl CoA (Sp. Activity 60 mCi/mmole; 20 microCi/ml, using 5 microliters per assay). The compounds of this invention are added in a DMSO solution at the following concentrations: 100 micro molar, 30 micro molar, and 3 micro molar. In each assay, a DMSO control is used. After 15 min at 30° C., the enzymatic reaction is centrifuged (20,000 g for 1 min), and 70 microliters of the supernatant is added to an activated reverse phase silicic acid column (approximately 0.5 ml of silicic acid). The column is eluted with 2 ml of water, and 0.5 ml of the eluent is used for scintillation counting to determine the amount of C^14 trapped as C^14 bicarbonate ion.

Consider “{(3S)-4-[(2R)-2-hydroxy-3-(2-methylbenzothiazol-5-yloxy)propyl]-3-methylpiperazinyl}-N-(9-ethylcarbazol-3-yl)carboxamide”, for which the IC50 worked out at 2600 nM.
